Test system: hypertensive subjects
Assay: Seated automated office blood pressure (AOBP) in randomized, placebo-controlled, dose-ranging study
Format: in vivo, human
Protocol: A randomized, double-blinded, placebo-controlled, dose-ranging, multicenter study was conducted to evaluate the effect of orally administered Compound A HBr on blood pressure for the treatment of hypertension in male and female subjects ≥18 years of age.
The study consists of two parts. For enrollment into Part 1 of the study, a subject's value of plasma renin activity (PRA) must be ≤1 ng/mL/h based on morning measurement. If the value of PRA >1 ng/mL/h based on morning measurement, then subjects may be eligible to enter Part 2 of the study.
For Part 1, 163 enrolled subjects ≥18 years of age were randomized into 6 equal treatment groups (1:1:1:1:1:1) to 12.5 mg BID, 25 mg BID, 12.5 mg QD, 50 mg QD, 100 mg QD, or placebo. After a review of interim clinical data, the 2 lowest dose levels (12.5 mg QD and 12.5 mg BID) were stopped for future randomization due to a lack of consistent meaningful reduction of blood pressure, but the patients randomized to that point remained in the study through completion. Thus, after the review of interim clinical data, subjects were randomized into 4 equal treatment groups (1:1:1:1) to 25 mg BID, 50 mg QD, 100 mg QD, or placebo.
For Part 2, 36 enrolled subjects ≥18 years of age were randomized (5:1) to either 100 mg QD Compound A HBr or placebo such that the Compound A HBr treatment group consisted of approximately 30 subjects and the placebo treatment group will consist of approximately 6 subjects.
Subjects orally administered the assigned study drug (Compound A HBr or placebo) according to the assigned dosing regimen for 8 weeks beginning on Study Day 1. All subjects in Part 1 (regardless of dosing group) received BID dosing to preserve the integrity of the blind; active drug is administered as the morning dose for all QD dose groups. Subjects returned to the research facility or were seen by the clinical investigator or approved home health care professional at the end of Study Weeks 1, 2, 3, 4, 5, 6, 7, and 8 (±2 days) for protocol-defined efficacy and safety assessments and procedures, assessment of adverse events (AEs), and confirmation of compliance with study drug usage. Subjects also completed a telephone visit and blood pressure (BP) check at home approximately 3 days post last dose of study drug. Subjects attended up to 14 full clinic visits, including a pre-Screening visit, a Screening/start of Placebo Run-in visit, a second visit during Placebo Run-in, a clinic visit to initiate the ABPM procedure, a Randomization visit, 8 weekly visits during double-blind treatment, and an end-of-study visit scheduled 4 weeks after the last study treatment for final efficacy and safety assessments.
An automated oscillometric sphygmomanometer device was used to measure the subjects' systolic and diastolic blood pressure in office after approximately 5 minutes of rest in the seated position.
The primary endpoint is the change in office-measured (mean of last 2 of 5 unattended measurements using an automated oscillometric sphygmomanometer device after approximately 5 minutes of rest in the seated position) systolic blood pressure (SBP) from baseline to the end of Study Week 8.
Secondary endpoints of this study were: • (a) Change in 24-hour ambulatory blood pressure monitoring (ABPM) parameters (systolic and diastolic) from baseline to the end of Study Week 7. • (b) Change in office-measured SBP from baseline to the end of Study Weeks 1, 2, 3, 4, 5, 6, and 7. • (c) Change in office-measured diastolic blood pressure (DBP) from baseline to the end of Study Weeks 1, 2, 3, 4, 5, 6, 7, and 8. • (d) Proportion of subjects who achieve office-measured BP of ≤130/80 mm Hg by the end of Study Week 8.

[1] = Part 2, 100 mg QD, Thiazide Diuretic Use at Baseline Yes
[2] = Part 2, 100 mg QD, subgroup ACEi/ARBs No (n 1)
[3] = Part 2, 100 mg QD, subgroup ACEi/ARBs Yes
[4] = Part 2, 100 mg QD, subgroup AHTs 2
[5] = Part 2, 100 mg QD, subgroup AHTs ≥3
[6] = Part 2, 100 mg QD, subgroup Age 65-79 yr
[7] = Part 2, 100 mg QD, subgroup Age <65 yr
[8] = Part 2, 100 mg QD, subgroup Age ≥80 yr (n 1)
[9] = Part 2, 100 mg QD, subgroup BMI 25-30 kg/m^2
[10] = Part 2, 100 mg QD, subgroup BMI <25 kg/m^2
[11] = Part 2, 100 mg QD, subgroup BMI >30 kg/m^2
[12] = Part 2, 100 mg QD, subgroup PRA 1-5 ng/mL/hr
[13] = Part 2, 100 mg QD, subgroup PRA >5 ng/mL/hr
[14] = Part 2, 100 mg QD, subgroup Race Black or AA
[15] = Part 2, 100 mg QD, subgroup Race Other
[16] = Part 2, 100 mg QD, subgroup Seated SBP Tertile High
[17] = Part 2, 100 mg QD, subgroup Seated SBP Tertile Low
[18] = Part 2, 100 mg QD, subgroup Seated SBP Tertile Middle
[19] = Part 2, 100 mg QD, subgroup Sex Female
[20] = Part 2, 100 mg QD, subgroup Sex Male
[21] = pooled 50 mg QD, 100 mg QD, 12.5 mg BID and 25 mg BID cohorts (N=103)
[22] = pooled 50 mg QD, 100 mg QD, 12.5 mg BID, 25 mg BID cohorts, week 8

In the case of `CC(=O)N[C@H]1CC[C@H](NC(=O)CN2CCN(c3nncc(-c4ccc(C)cc4)n3)CC2)CC1` [Compound A HBr], the “Mean Automated Office-Measured Systolic Blood Pressure at Wk 8” value [1] is reported as 131.72 mmHg, the “Mean Change from Baseline at Week 8 in Automated Office-Measured Systolic Blood Pressure” value [1] is reported as −10.50 mmHg and the “Automated Office-Measured Diastolic Blood Pressure, Wk 8, mean” value [2] is reported as 87.00 mmHg. For the same compound, the “Change from Baseline at Week 8 in Automated Office-Measured Diastolic Blood Pressure, mean” value [2] was 0.00 mmHg, the “Automated Office-Measured Diastolic Blood Pressure, Wk 8, mean” value [3] was 71.66 mmHg and the “Change from Baseline at Week 8 in Automated Office-Measured Diastolic Blood Pressure, mean” value [3] was −5.88 mmHg. For the same compound, the “Automated Office-Measured Diastolic Blood Pressure, Wk 8, mean” value [4] was 71.58 mmHg, the “Change from Baseline at Week 8 in Automated Office-Measured Diastolic Blood Pressure, mean” value [4] was −6.21 mmHg and the “Automated Office-Measured Diastolic Blood Pressure, Wk 8, mean” value [5] was 73.18 mmHg. For the same compound, the “Change from Baseline at Week 8 in Automated Office-Measured Diastolic Blood Pressure, mean” value [5] was −4.77 mmHg, the “Automated Office-Measured Diastolic Blood Pressure, Wk 8, mean” value [6] was 72.38 mmHg and the “Change from Baseline at Week 8 in Automated Office-Measured Diastolic Blood Pressure, mean” value [6] was −3.83 mmHg. The “Automated Office-Measured Diastolic Blood Pressure, Wk 8, mean” value [7] was 72.50 mmHg, the “Change from Baseline at Week 8 in Automated Office-Measured Diastolic Blood Pressure, mean” value [7] was −10.38 mmHg and the “Automated Office-Measured Diastolic Blood Pressure, Wk 8, mean” value [8] was 65.00 mmHg. The “Change from Baseline at Week 8 in Automated Office-Measured Diastolic Blood Pressure, mean” value [8] was −7.00 mmHg, the “Automated Office-Measured Diastolic Blood Pressure, Wk 8, mean” value [9] was 70.40 mmHg and the “Change from Baseline at Week 8 in Automated Office-Measured Diastolic Blood Pressure, mean” value [9] was −6.10 mmHg. The “Automated Office-Measured Diastolic Blood Pressure, Wk 8, mean” value [10] was 77.00 mmHg, the “Change from Baseline at Week 8 in Automated Office-Measured Diastolic Blood Pressure, mean” value [10] was −1.25 mmHg and the “Automated Office-Measured Diastolic Blood Pressure, Wk 8, mean” value [11] was 73.46 mmHg. For the same compound, the “Change from Baseline at Week 8 in Automated Office-Measured Diastolic Blood Pressure, mean” value [11] was −5.88 mmHg, the “Automated Office-Measured Diastolic Blood Pressure, Wk 8, mean” value [12] was 71.93 mmHg and the “Change from Baseline at Week 8 in Automated Office-Measured Diastolic Blood Pressure, mean” value [12] was −2.14 mmHg. For the same compound, the “Automated Office-Measured Diastolic Blood Pressure, Wk 8, mean” value [13] was 71.29 mmHg, the “Change from Baseline at Week 8 in Automated Office-Measured Diastolic Blood Pressure, mean” value [13] was −11.79 mmHg and the “Automated Office-Measured Diastolic Blood Pressure, Wk 8, mean” value [14] was 72.00 mmHg. The “Change from Baseline at Week 8 in Automated Office-Measured Diastolic Blood Pressure, mean” value [14] was −4.67 mmHg, the “Automated Office-Measured Diastolic Blood Pressure, Wk 8, mean” value [15] was 72.21 mmHg and the “Change from Baseline at Week 8 in Automated Office-Measured Diastolic Blood Pressure, mean” value [15] was −5.94 mmHg. The “Automated Office-Measured Diastolic Blood Pressure, Wk 8, mean” value [16] was 72.09 mmHg, the “Change from Baseline at Week 8 in Automated Office-Measured Diastolic Blood Pressure, mean” value [16] was −4.14 mmHg and the “Automated Office-Measured Diastolic Blood Pressure, Wk 8, mean” value [17] was 72.33 mmHg. For the same compound, the “Change from Baseline at Week 8 in Automated Office-Measured Diastolic Blood Pressure, mean” value [17] was −6.78 mmHg, the “Automated Office-Measured Diastolic Blood Pressure, Wk 8, mean” value [18] was 72.10 mmHg and the “Change from Baseline at Week 8 in Automated Office-Measured Diastolic Blood Pressure, mean” value [18] was −6.40 mmHg. The “Automated Office-Measured Diastolic Blood Pressure, Wk 8, mean” value [19] was 70.75 mmHg, the “Change from Baseline at Week 8 in Automated Office-Measured Diastolic Blood Pressure, mean” value [19] was −6.28 mmHg and the “Automated Office-Measured Diastolic Blood Pressure, Wk 8, mean” value [20] was 75.00 mmHg. The “Change from Baseline at Week 8 in Automated Office-Measured Diastolic Blood Pressure, mean” value [20] was −4.50 mmHg, the “Blood pressure reduction by background thiazide diuretic” value (across dosing cohorts) was “particularly effective at reducing the blood pressure of individuals who were receiving a thiazide diuretic” and the “Blood pressure reduction by body mass index (BMI)” value (across dosing cohorts) was “particularly effective at reducing the blood pressure of individuals with a body mass index (BMI) of greater than 30”. For the same compound, the “Subjects with change in BPsys >−15 mmHg” value [21] was 41%, the “Subjects with change in BPsys >−25 mmHg” value [21] was 25% and the “Subjects achieving >−23 mmHg fall in systolic blood pressure” value [22] was 25%. For the same compound, the “Subjects achieving ≥15 mmHg fall in systolic blood pressure” value [22] was 41%.

Reference: patent US20260053811A1, “METHODS OF TREATING HYPERTENSION IN OBESE SUBJECTS” (Mineralys Therapeutics, Inc., priority 2022, published 2026)
